In patent US3984563A, “Antiinflammatory 2-imino-indolines and their pharmaceutical compositions” (Gruppo Lepetit S.p.A., priority 1973, dated 1976):
Counter-ions that a name gives are not always drawn. Like-named read-outs stand apart in the source and are kept apart here.

Legend:
[1] = system: carrageenin edema; test: carrageenin edema test in rats (antiinflammatory activity); assay type: in vivo; conditions: Rattus norvegicus, po, read-out: % Decrease of the edema; for inhibition in vivo at 50 mg/kg: dose 50 mg/kg p.o. in rats; for inhibition in vivo at 200 mg/kg: dose 200 mg/kg p.o. in rats; for inhibition in vivo at 100 mg/kg: dose 100 mg/kg p.o. in rats
Source text: The anti-inflamatory activity of the indole derivatives is evidenced by means of the carrageenin edema test in rats. In representative experiments compounds of formula I provoked a substantial decrease of the induced edema at dosage levels from about one fifth to about one tenth of their respective LD50 values. The following table reports the results of the experiments:
The following table reports the percent inhibitory effect of some representative compounds of the formula II in the carrageenin edema test.

[2] = LD50 p.o. in rats (acute toxicity); conditions: rat, in vivo, po
[3] = system: pain threshold of inflammed foot of the rat; test: analgesic effect on pain threshold of inflamed foot of the rat (Randall and Selitto); assay type: in vivo; conditions: vs acetylsalicylic acid
[4] = compounds of the examples (formula I)

Compound	inhibition in vivo at 50 mg/kg ([1]; hydrazines of formula II) [%]	LD50 ([2]; hydrazines of formula II) [mg/kg]	LD50 [2, 4] [mg/kg]	other results
COc1ccc(N(C)NC(=O)C(C)C)cc1 [1-(p-Methoxyphenyl)-1-methyl-2-isobutyrylhydrazine]	30	500		
CN(NC(=O)CCCN1C(=O)c2ccccc2C1=O)c1ccccc1 [1-Phenyl-1-methyl-1-( -phthalimido-butyryl)-hydrazine]		> 1000		inhibition in vivo at 200 mg/kg ([1]; hydrazines of formula II): 28%
CCC(C)C(=O)NN(C)c1ccccc1 (stereo not drawn) [1-Phenyl-1-methyl-2-(2-methylbutyryl)-hydrazine]		> 1000		inhibition in vivo at 100 mg/kg ([1]; hydrazines of formula II): 40%
CC(=O)NN(C)c1ccccc1 [1-Phenyl-1-methyl-2-acetylhydrazine]	57	500		
CN(NC(=O)C1CCCCC1)c1ccccc1 [1-Phenyl-1-methyl-2-cyclohexanoyl hydrazine]	37	500		
CN(NC(=O)C1CCCC1)c1ccccc1 [1-Phenyl-1-methyl-2-cyclopentanoylhydrazine]	37	500		
CN(NC(=O)C1CC1)c1ccccc1 [1-Phenyl-1-methyl-2-cyclopropanoylhydrazine]	35	500		
CC(C)C(=O)NN(C)c1ccccc1 [1-Phenyl-1-methyl-2-isobutyrylhydrazine]	36	500		
CCC(=O)NN(C)c1ccccc1 [1-Phenyl-1-methyl-2-propionylhydrazine]	30	500		
COc1cccc(-c2c(N)n(C)c3ccccc23)c1 [Example 9, 2-amino-3-(m-anisyl)-1-methylindole hydrochloride]			> 1000	inhibition in vivo at 100 mg/kg [1, 4]: 30%; inhibition in vivo at 200 mg/kg [1, 4]: 41%
CN1C(=N)C2(CCCCC2)c2ccccc21 [Example 13, 2'-imino-1'-methyl-spyro(cyclohexane-1,3'-indoline)hydrochloride]			100	inhibition in vivo at 8 mg/kg ([1]; compounds of the examples (formula I), dose 8 mg/kg p.o. in rats): 45%; inhibition in vivo at 20 mg/kg ([1]; compounds of the examples (formula I), dose 20 mg/kg p.o. in rats): 60%; analgesic activity relative to acetylsalicylic acid (times as active) [3]: about 25 times
CN1C(=NC(=O)c2ccccc2)C(C)(C)c2ccccc21 [Example 28, 2-Benzoylimino-1,3,3-trimethylindoline]			> 1000	inhibition in vivo at 100 mg/kg [1, 4]: 35%; inhibition in vivo at 200 mg/kg [1, 4]: 45%
Cn1c(NC(=O)Nc2ccccc2)c(-c2ccc(Cl)cc2)c2ccccc21 [Example 34, 3-(p-Chlorophenyl)-1-methyl-2-phenylureidoindole]			> 1000	inhibition in vivo at 200 mg/kg [1, 4]: 33%
